In assay [1] the target is mTOR (human recombinant aa mTOR 1360-2549) (Homo sapiens (Human), UniProt P42345). Put plainly: mTOR enzymatic test by TR-FRET (phosphorylation of GFP-4EBP1). It is filed as biochemical. A digest of the protocol:
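TR-FRET detection of GFP-4EBP1 phosphorylation by a terbium-labelled anti-phospho-Thr46 antibody. Kinase reaction ran 30 min at room temperature, was quenched with EDTA (10 mM final) plus Tb-antibody (2 nM final) and left 60 min. Emission at 520 and 490 nm after 340 nm excitation, reported as the 520/490 ratio.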
On the technique in general: Time-resolved FRET reads energy transfer from a long-lived donor to a nearby acceptor.

The target in another assay is PI3Kα (p110α/p85α) (Homo sapiens (Human), UniProt P42336). Put plainly: PI3Kα enzymatic test by measuring the consumption of ATP. It is filed as biochemical. A digest of the protocol:
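p110α/p85α (1.7 μg/ml) with 50 μM PIP2 and 2 μM ATP in pH 7.5 Tris buffer with EGTA, MgCl2, Chaps, DTT; reaction 90 min. Remaining ATP measured by luciferin/luciferase luminescence; IC50 from threefold serial dilutions spanning at least 10 000-fold.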

The next assay deals with U87MG tumour cells. In words: Test of in vitro proliferation of U87MG tumour cells. It is filed as cell-based. The following applies: Homo sapiens, U-87 MG, 72 h. The protocol:
Model 4: Test of in vitro Proliferation of U87MG Tumour Cells.
The cell growth is determined with the reagent CellTiter 96 AQueous One Solution Cell Proliferation Assay from Promega (Cat. No. G3581).

In another assay the test system is Akt-pS473 in U87MG cells. The following applies: Homo sapiens, U-87 MG; for inhibition at 3 µM: read-out: U87 Akt-pS473 % Inhibition.
Where [2] appears, read: U87MG cells, 72 hours, read-out: U87 Cell Proliferation IC50.
[3] abbreviates: read-out: U87 Akt-pS473 % Inhibition or IC50, nM (IC50), U87MG cells.

Like-named read-outs stand apart in the source and are kept apart here. Some results are limits rather than exact numbers.

As a reminder, the inhibition is how much of the control response was suppressed.

PI3Kα (p110α/p85α), sequence (P42336 whole entry): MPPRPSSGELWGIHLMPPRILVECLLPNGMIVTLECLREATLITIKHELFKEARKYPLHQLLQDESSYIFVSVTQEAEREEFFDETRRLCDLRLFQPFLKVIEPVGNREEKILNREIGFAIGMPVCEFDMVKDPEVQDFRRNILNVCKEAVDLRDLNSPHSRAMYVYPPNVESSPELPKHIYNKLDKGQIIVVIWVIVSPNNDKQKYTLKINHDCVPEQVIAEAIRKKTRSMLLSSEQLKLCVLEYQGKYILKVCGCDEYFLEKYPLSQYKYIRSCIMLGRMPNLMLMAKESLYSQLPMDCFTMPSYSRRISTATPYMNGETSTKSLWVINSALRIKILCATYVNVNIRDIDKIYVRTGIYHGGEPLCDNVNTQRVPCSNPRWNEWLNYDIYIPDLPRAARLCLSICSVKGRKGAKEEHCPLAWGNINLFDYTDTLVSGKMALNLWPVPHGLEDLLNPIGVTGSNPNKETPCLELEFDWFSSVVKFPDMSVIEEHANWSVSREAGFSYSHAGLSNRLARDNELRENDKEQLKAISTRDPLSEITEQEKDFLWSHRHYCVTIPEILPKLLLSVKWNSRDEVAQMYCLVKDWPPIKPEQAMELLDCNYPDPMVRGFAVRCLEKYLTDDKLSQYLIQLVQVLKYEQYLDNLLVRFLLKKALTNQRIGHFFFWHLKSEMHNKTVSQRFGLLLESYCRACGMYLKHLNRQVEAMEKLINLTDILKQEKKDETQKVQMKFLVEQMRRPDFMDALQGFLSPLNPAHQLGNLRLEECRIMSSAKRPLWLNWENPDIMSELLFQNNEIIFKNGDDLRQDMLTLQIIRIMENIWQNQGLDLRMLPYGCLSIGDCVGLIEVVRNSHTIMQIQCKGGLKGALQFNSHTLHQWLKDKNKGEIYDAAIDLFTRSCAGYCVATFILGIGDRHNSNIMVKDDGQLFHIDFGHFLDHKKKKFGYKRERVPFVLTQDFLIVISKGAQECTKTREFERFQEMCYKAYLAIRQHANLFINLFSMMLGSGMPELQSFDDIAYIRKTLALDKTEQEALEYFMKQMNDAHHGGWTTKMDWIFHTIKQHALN
PI3Kα (p110α/p85α), sequence (P27986 whole entry partner): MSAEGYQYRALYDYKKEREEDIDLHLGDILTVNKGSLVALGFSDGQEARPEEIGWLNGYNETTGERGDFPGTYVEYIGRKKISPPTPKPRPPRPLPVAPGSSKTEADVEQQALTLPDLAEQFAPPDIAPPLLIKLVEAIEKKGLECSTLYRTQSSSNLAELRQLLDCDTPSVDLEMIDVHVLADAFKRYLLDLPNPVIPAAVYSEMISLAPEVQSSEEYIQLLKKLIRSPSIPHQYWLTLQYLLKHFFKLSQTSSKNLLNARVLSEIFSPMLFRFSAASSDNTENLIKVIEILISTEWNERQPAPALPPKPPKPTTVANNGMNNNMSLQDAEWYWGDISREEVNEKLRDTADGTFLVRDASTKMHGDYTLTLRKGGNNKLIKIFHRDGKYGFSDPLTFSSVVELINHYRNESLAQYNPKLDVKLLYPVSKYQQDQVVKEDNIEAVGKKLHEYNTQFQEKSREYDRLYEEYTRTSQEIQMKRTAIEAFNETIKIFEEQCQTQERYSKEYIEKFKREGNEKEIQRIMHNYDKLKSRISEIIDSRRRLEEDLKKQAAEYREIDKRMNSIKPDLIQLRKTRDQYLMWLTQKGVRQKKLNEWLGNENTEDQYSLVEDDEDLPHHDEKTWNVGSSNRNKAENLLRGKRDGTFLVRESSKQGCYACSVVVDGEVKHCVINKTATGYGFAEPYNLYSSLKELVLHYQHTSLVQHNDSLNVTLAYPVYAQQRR
mTOR (human recombinant aa mTOR 1360-2549), sequence (P42345 1360-2549): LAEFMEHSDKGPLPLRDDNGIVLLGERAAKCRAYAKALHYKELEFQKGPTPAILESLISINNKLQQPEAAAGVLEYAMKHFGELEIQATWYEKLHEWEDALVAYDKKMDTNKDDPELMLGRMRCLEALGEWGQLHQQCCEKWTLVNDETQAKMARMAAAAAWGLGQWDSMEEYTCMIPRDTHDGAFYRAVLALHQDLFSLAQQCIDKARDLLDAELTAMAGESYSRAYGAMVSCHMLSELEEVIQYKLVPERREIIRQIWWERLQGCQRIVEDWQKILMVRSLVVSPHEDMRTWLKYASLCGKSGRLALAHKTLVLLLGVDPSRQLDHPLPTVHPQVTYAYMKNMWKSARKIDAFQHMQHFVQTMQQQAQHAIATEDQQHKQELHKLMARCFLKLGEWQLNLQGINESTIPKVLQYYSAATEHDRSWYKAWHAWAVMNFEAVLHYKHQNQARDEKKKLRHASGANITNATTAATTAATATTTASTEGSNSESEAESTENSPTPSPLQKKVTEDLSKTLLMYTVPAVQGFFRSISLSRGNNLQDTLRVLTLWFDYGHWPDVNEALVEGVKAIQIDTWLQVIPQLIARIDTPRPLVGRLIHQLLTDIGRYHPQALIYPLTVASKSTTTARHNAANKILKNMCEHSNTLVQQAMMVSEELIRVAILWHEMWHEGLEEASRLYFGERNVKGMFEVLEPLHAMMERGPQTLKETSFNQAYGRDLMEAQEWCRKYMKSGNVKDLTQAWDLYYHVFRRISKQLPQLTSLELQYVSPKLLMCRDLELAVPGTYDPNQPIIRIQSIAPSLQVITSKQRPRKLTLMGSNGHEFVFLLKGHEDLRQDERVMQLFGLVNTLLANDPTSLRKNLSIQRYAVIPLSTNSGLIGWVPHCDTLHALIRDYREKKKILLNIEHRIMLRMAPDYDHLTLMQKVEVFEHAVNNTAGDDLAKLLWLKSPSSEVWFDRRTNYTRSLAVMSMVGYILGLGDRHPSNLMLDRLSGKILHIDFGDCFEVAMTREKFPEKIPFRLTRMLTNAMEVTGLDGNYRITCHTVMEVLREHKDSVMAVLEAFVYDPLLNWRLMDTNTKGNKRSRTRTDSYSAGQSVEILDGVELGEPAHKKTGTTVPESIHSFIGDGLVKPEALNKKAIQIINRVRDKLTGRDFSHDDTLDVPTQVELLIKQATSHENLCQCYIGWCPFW

For the compound `CCN1CC(C)(C)Oc2nc(N3CC4CCC(C3)O4)nc(-c3ccc(Nc4nnc(-c5ccc(OC)nc5)[nH]4)c(F)c3)c2C1=O` [Example 183, 6-Ethyl-4-{3-fluoro-4-[5-(6-methoxypyridin-3-yl)-4H-[1,2,4]triazol-3-ylamino]phenyl}-8,8-dimethyl-2-(8-oxa-3-azabicyclo[3.2.1]oct-3-yl)-7,8-dihydro-6H-9-oxa-1,3,6-triazabenzocyclohepten-5-one], the IC50 in assay [1] came out at 0.128 µM; in the assay with U87MG tumour cells (setting [2]), 752 nM; in the assay with Akt-pS473 in U87MG cells (setting [3]) it was 165 nM. Moreover, the “PI3Ka IC50” value on PI3Kα (p110α/p85α) is above 10 µM.
As to `CCN1CC(C)(C)Oc2nc(N3CCOC[C@@H]3C)nc(-c3ccc(NC(=O)Nc4cc(OC)ccn4)cc3)c2C1=O` [Example 184, 1-{4-[6-Ethyl-8,8-dimethyl-2-((S)-3-methylmorpholin-4-yl)-5-oxo-5,6,7,8-tetrahydro-9-oxa-1,3,6-triazabenzocyclohepten-4-yl]phenyl}-3-(4-methoxypyridin-2-yl)urea], the values for the IC50 (in assay [1]; in the assay with U87MG tumour cells (setting [2]); in the assay with Akt-pS473 in U87MG cells (setting [3])) were 0.012 µM, 368 nM and 65 nM, respectively. In addition, at PI3Kα (p110α/p85α), the “PI3Ka IC50” value stood at 12.978 µM.
As to `CCN1CC(C)(C)Oc2nc(N3CC4CCC(C3)O4)nc(-c3ccc(NC(=O)Nc4ccc(C)nc4)c(F)c3)c2C1=O` [Example 185, 1-{4-[6-Ethyl-8,8-dimethyl-2-(8-oxa-3-azabicyclo[3.2.1]oct-3-yl)-5-oxo-5,6,7,8-tetrahydro-9-oxa-1,3,6-triazabenzocyclohepten-4-yl]-2-fluorophenyl}-3-(6-methylpyridin-3-yl)urea], the IC50 in assay [1] came out at 0.024 µM; in the assay on U87MG tumour cells (setting [2]) it was 73 nM; in the assay on Akt-pS473 in U87MG cells (setting [3]), 20 nM. Moreover, on PI3Kα (p110α/p85α), the “PI3Ka IC50” value came to 5.68 µM.
For `CCN1CC(C)(C)Oc2nc(N3CCOC[C@@H]3C)nc(-c3ccc(NC(=O)OCCO)cc3)c2C1=O` [Example 186, {4-[6-Ethyl-8,8-dimethyl-2-((S)-3-methylmorpholin-4-yl)-5-oxo-5,6,7,8-tetrahydro-9-oxa-1,3,6-triazabenzocyclohepten-4-yl]phenyl}carbamic acid 2-hydroxyethyl ester] the same measures were 0.025 µM, 266 nM, 60 nM and 3.94 µM.
Take `CCN1CC(C)(C)Oc2nc(N3CCOC[C@@H]3C)nc(-c3ccc(NC(=O)Nc4ccc(N5CCOCC5)nc4)c(F)c3)c2C1=O` [Example 187, 1-{4-[6-Ethyl-8,8-dimethyl-2-((S)-3-methylmorpholin-4-yl)-5-oxo-5,6,7,8-tetrahydro-9-oxa-1,3,6-triazabenzocyclohepten-4-yl]-2-fluorophenyl}-3-(6-morpholin-4-ylpyridin-3-yl)urea]: the IC50 in assay [1] stood at 0.037 µM; with U87MG tumour cells (setting [2]), 67 nM; in the assay on Akt-pS473 in U87MG cells (setting [3]), 22 nM. Moreover, the “PI3Ka IC50” value on PI3Kα (p110α/p85α) was 0.472 µM.
For `COCCN1CC(C)(C)Oc2nc(N3CCOC[C@@H]3C)nc(-c3ccc(NC(=O)Nc4ccc(F)cc4F)cc3)c2C1=O` [Example 188, 1-(2,4-Difluorophenyl)-3-{4-[6-(2-methoxyethyl)-8,8-dimethyl-2-((S)-3-methylmorpholin-4-yl)-5-oxo-5,6,7,8-tetrahydro-9-oxa-1,3,6-triazabenzocyclohepten-4-yl]phenyl}urea] the same measures were 0.063 µM, 505 nM, 45 nM and 2.33 µM.
In the case of `COc1ccc(NC(=O)Nc2ccc(-c3nc(N4CCOC[C@@H]4C)nc4c3C(=O)N(C3CCOCC3)CC(C)(C)O4)cc2F)cn1` [Example 189, 1-{4-[8,8-Dimethyl-2-((S)-3-methylmorpholin-4-yl)-5-oxo-6-(tetrahydropyran-4-yl)-5,6,7,8-tetrahydro-9-oxa-1,3,6-triazabenzocyclohepten-4-yl]-2-fluorophenyl}-3-(6-methoxypyridin-3-yl)urea], the results for the IC50 (in assay [1]; with U87MG tumour cells (setting [2]); in the assay on Akt-pS473 in U87MG cells (setting [3])) were 0.062 µM, 451 nM and 56 nM, respectively. Further, the “PI3Ka IC50” value on PI3Kα (p110α/p85α) was 1.89 µM.
Take `CCN1CC(C)(C)Oc2nc(N3CC4CCC(C3)O4)nc(-c3ccc(NC(=O)Nc4ccc(C(=O)NCC(C)(C)O)cc4)cc3)c2C1=O` [Example 190, 4-(3-{4-[6-Ethyl-8,8-dimethyl-2-(8-oxa-3-azabicyclo[3.2.1]oct-3-yl)-5-oxo-5,6,7,8-tetrahydro-9-oxa-1,3,6-triazabenzocyclohepten-4-yl]phenyl}ureido)-N-(2-hydroxy-2-methylpropyl)benzamide]: the IC50 worked out at 0.04 µM in assay [1] and 734 nM in the assay with U87MG tumour cells (setting [2]). Moreover, the “PI3Ka IC50” value at PI3Kα (p110α/p85α) is 0.927 µM. For the same compound, the inhibition at 3 µM with Akt-pS473 in U87MG cells was determined as 69%.
For `CCN1CC(C)(C)Oc2nc(N3CCOC[C@@H]3C)nc(-c3ccc(NC(=O)Nc4ccc(F)cc4F)cc3)c2C1=O` [Example 191, 1-(2,4-Difluorophenyl)-3-{4-[6-ethyl-8,8-dimethyl-2-((S)-3-methylmorpholin-4-yl)-5-oxo-5,6,7,8-tetrahydro-9-oxa-1,3,6-triazabenzocyclohepten-4-yl]phenyl}urea], the IC50 came to 0.024 µM in assay [1], 105 nM with U87MG tumour cells (setting [2]) and 26 nM with Akt-pS473 in U87MG cells (setting [3]). In addition, on PI3Kα (p110α/p85α), the “PI3Ka IC50” value worked out at 0.57 µM.
In the case of `CCN1CC(C)(C)Oc2nc(N3CCOC[C@@H]3C)nc(-c3ccc(NC(=O)Nc4ccccn4)c(F)c3)c2C1=O` [Example 192, 1-{4-[6-Ethyl-8,8-dimethyl-2-((S)-3-methylmorpholin-4-yl)-5-oxo-5,6,7,8-tetrahydro-9-oxa-1,3,6-triazabenzocyclohepten-4-yl]-2-fluorophenyl}-3-pyridin-2-ylurea], the values for the IC50 (in assay [1]; in the assay with U87MG tumour cells (setting [2])) were 0.029 µM and 1770 nM, respectively. Moreover, the “PI3Ka IC50” value at PI3Kα (p110α/p85α) came to 1.31 µM. Besides, the inhibition at 3 µM with Akt-pS473 in U87MG cells was 82%.
With `CCN1CC(C)(C)Oc2nc(N3CCOC[C@@H]3C)nc(-c3ccc(NC(=O)Oc4cccc(OC)c4)cc3)c2C1=O` [Example 193, {4-[6-Ethyl-8,8-dimethyl-2-((S)-3-methylmorpholin-4-yl)-5-oxo-5,6,7,8-tetrahydro-9-oxa-1,3,6-triazabenzocyclohepten-4-yl]phenyl}carbamic acid 3-methoxyphenyl ester], the IC50 in assay [1] is 0.97 µM; in the assay on U87MG tumour cells (read-out: U87 Cell Proliferation IC50, nM), 4660 nM; in the assay on Akt-pS473 in U87MG cells (read-out: U87 Akt-pS473 % Inhibition or IC50, nM (IC50)), above 1000 nM. Besides, the “PI3Ka IC50” value on PI3Kα (p110α/p85α) is 9.44 µM.
For the compound `CCN1CC(C)(C)Oc2nc(N3CC4CCC(C3)O4)nc(-c3ccc(NC(=O)Nc4cn(C)cn4)c(F)c3)c2C1=O` [Example 194, 1-{4-[6-Ethyl-8,8-dimethyl-2-(8-oxa-3-azabicyclo[3.2.1]oct-3-yl)-5-oxo-5,6,7,8-tetrahydro-9-oxa-1,3,6-triazabenzocyclohepten-4-yl]-2-fluorophenyl}-3-(1-methyl-1H-imidazol-4-yl)urea], the IC50 in assay [1] was 0.027 µM; in the assay on U87MG tumour cells (setting [2]) it was 2130 nM. Also, at PI3Kα (p110α/p85α), the “PI3Ka IC50” value was found to be 1.23 µM. In the assay with Akt-pS473 in U87MG cells, the inhibition at 3 µM was 62%.
Turning to `CCN1CC(C)(C)Oc2nc(N3CC4CCC(C3)O4)nc(-c3ccc(NC(=O)Nc4ccc(N5CCN(C)CC5)nc4)c(F)c3)c2C1=O` [Example 195, 1-{4-[6-Ethyl-8,8-dimethyl-2-(8-oxa-3-azabicyclo[3.2.1]oct-3-yl)-5-oxo-5,6,7,8-tetrahydro-9-oxa-1,3,6-triazabenzocyclohepten-4-yl]-2-fluorophenyl}-3-[6-(4-methylpiperazin-1-yl)pyridin-3-yl]urea], the IC50 in assay [1] is 0.061 µM; in the assay with U87MG tumour cells (setting [2]), 57 nM; in the assay on Akt-pS473 in U87MG cells (setting [3]) it was 45 nM. Moreover, the “PI3Ka IC50” value at PI3Kα (p110α/p85α) is 6.8 µM.
Turning to `CCN1CC(C)(C)Oc2nc(N3CCOC[C@@H]3C)nc(-c3ccc(NC(=O)Nc4ccc(OC)nc4)c(C)c3)c2C1=O` [Example 196, 1-{4-[6-Ethyl-8,8-dimethyl-2-((S)-3-methylmorpholin-4-yl)-5-oxo-5,6,7,8-tetrahydro-9-oxa-1,3,6-triazabenzocyclohepten-4-yl]-2-methylphenyl}-3-(6-methoxypyridin-3-yl)urea], the values for the IC50 (in assay [1]; in the assay with U87MG tumour cells (setting [2])) were 0.276 µM and 5050 nM, respectively. Further, the “PI3Ka IC50” value on PI3Kα (p110α/p85α) worked out at 7.47 µM. Also, in the assay with Akt-pS473 in U87MG cells, the inhibition at 3 µM stood at 60%.
Regarding `COCCN1CC(C)(C)Oc2nc(N3CC4CCC(C3)O4)nc(-c3ccc(NC(=O)Nc4ccc(OC)nc4)cc3)c2C1=O` [Example 197, 1-{4-[6-(2-Methoxyethyl)-8,8-dimethyl-2-(8-oxa-3-azabicyclo[3.2.1]oct-3-yl)-5-oxo-5,6,7,8-tetrahydro-9-oxa-1,3,6-triazabenzocyclohepten-4-yl]phenyl}-3-(6-methoxypyridin-3-yl)urea], the values for the IC50 (in assay [1]; in the assay on U87MG tumour cells (setting [2]); with Akt-pS473 in U87MG cells (setting [3])) were 0.117 µM, 523 nM and 150 nM, respectively. Also, on PI3Kα (p110α/p85α), the “PI3Ka IC50” value was above 10 µM.
Regarding `CCN1CC(C)(C)Oc2nc(N3CC4CCC(C3)O4)nc(-c3ccc(NC(=O)Nc4cnc(OC)cn4)cc3)c2C1=O` [Example 198, 1-{4-[6-Ethyl-8,8-dimethyl-2-(8-oxa-3-azabicyclo[3.2.1]oct-3-yl)-5-oxo-5,6,7,8-tetrahydro-9-oxa-1,3,6-triazabenzocyclohepten-4-yl]phenyl}-3-(5-methoxypyrazin-2-yl)urea], the IC50 in assay [1] came out at 0.057 µM; with U87MG tumour cells (setting [2]), 318 nM; in the assay on Akt-pS473 in U87MG cells (setting [3]), 44 nM. The “PI3Ka IC50” value on PI3Kα (p110α/p85α) is above 10 µM.
